# Experiments:
# [1] = test system: MtBAN; assay: Anthocyanidin reductase activity assay with recombinant MtBAN protein extract (HPLC of products); format: biochemical, Medicago truncatula; settings: for reduction of anthocyanidin substrate to flavan-3-ol product(s) by MtBAN: MtBAN protein extract, NADPH, Tris-HCl pH 7.0, 30° C. for 30 min, HPLC; for conversion of flavan-3-ol into its isomer on incubation with MtBAN: in the presence of NADPH
# [2] = target: AtBAN (Arabidopsis thaliana, UniProt Q9SEV0); format: biochemical; settings: for reduction of anthocyanidin substrate to flavan-3-ol product by AtBAN: AtBAN protein extract (4 month old frozen), NADPH as coenzyme, HPLC; for conversion of flavan-3-ol into its isomer on incubation with AtBAN: in the presence of NADPH
# AtBAN, sequence (Q9SEV0 other isoform, or with tags, fused parts or gaps K55Q/I146L/V156I/E157D/T179K/K185E): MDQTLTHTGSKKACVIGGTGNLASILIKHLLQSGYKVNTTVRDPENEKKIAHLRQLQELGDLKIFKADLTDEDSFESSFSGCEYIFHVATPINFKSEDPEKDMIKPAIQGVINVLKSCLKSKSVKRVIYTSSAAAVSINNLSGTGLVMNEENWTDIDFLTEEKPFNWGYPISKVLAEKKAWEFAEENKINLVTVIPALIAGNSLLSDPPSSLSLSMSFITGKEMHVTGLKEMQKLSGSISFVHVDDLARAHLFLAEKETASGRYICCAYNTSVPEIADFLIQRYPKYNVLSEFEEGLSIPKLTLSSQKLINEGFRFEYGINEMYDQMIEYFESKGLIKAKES
# [3] = test system: Anthocyanidin reductase; assay: Anthocyanidin reductase assay with desalted crude enzyme from Lotus corniculatus leaves; format: biochemical; settings: young leaves; 100 μM cyanidin, 1 mM NADPH, 30° C. for 30 min
# Protocol: (§1) Lotus corniculatus, Desmodium uncinatum and Barley cv. Morex were grown in a green house. Young leaves from L. corniculatus, unexpanded leaves, and young pods as well as open flowers and flower buds from D. uncinatum, and young grains from Barley were collected. Testa of barley grains were excised and pooled together for enzyme extraction. Mature grape fruit stored at −80° C. was treated in pH 7 100 mM Tris.HCl buffer for 30 seconds for isolated the skin for enzyme extraction.
# (§2) A fresh one-gram leaf sample of L. corniculatus, one-gram testa from barley, and 9 grams of grape fruit skin, as well as two grams of flowers, 3 grams of young pods and 3 grams of young unexpanded leaves from Desmodium uncinatum were ground into homogenate fine powder in liquid nitrogen. The follow buffer systems were used for enzyme extraction. Extraction buffer 1: pH7 100 mM Tris.HCl, 10% glycerol and 2 mM 1,4-dithiothreitol; Extraction buffer 2: pH8 50 mM phosphate buffer, 10% glycerol, 1.5% polyethyleneglycerol 4000 (PEG-4000), 2 mM pH 8.0 Na-DETA, 25 mM sodium ascorbate, 20 mM β-mecaptoenthanol, and 5 mM 1,4-dithiothreitol; Extraction buffer 3: pH8 100 mM Tris.HCl, 10% glycerol 1.5% polyethyleneglycerol 4000 (PEG-4000), 2 mM pH 8.0 Na-DETA, 25 mM sodium ascorbate, 80 mM β-mecaptoenthanol, and 5 mM 1,4-dithiothreitol. […]
# [4] = test system: Anthocyanidin reductase; assay: Anthocyanidin reductase assay with desalted crude enzyme from grape fruit skin; format: biochemical, Vitis vinifer; settings: 100 μM cyanidin, 1 mM NADPH, 30° C. for 30 min
# Protocol: as §1, §2
# [5] = test system: Anthocyanidin reductase; assay: Anthocyanidin reductase assay with desalted crude enzyme from barley testa tissue; format: biochemical, Hordeum vulgera (barley) cv. morex; settings: 100 μM cyanidin, 1 mM NADPH, 30° C. for 30 min
# Protocol: as §1, §2
# [6] = test system: Anthocyanidin reductase (ANR); assay: Anthocyanidin reductase assay with desalted crude enzyme from Desmodium uncinatum tissues; format: biochemical; settings: 100 μM cyanidin, 1 mM NADPH
# Protocol: as §1
# A fresh one-gram leaf sample of L. corniculatus, one-gram testa from barley, and 9 grams of grape fruit skin, as well as two grams of flowers, 3 grams of young pods and 3 grams of young unexpanded leaves from Desmodium uncinatum were ground into homogenate fine powder in liquid nitrogen. The follow buffer systems were used for enzyme extraction. Extraction buffer 1: pH7 100 mM Tris.HCl, 10% glycerol and 2 mM 1,4-dithiothreitol; Extraction buffer 2: pH8 50 mM phosphate buffer, 10% glycerol, 1.5% polyethyleneglycerol 4000 (PEG-4000), 2 mM pH 8.0 Na-DETA, 25 mM sodium ascorbate, 20 mM β-mecaptoenthanol, and 5 mM 1,4-dithiothreitol; Extraction buffer 3: pH8 100 mM Tris.HCl, 10% glycerol 1.5% polyethyleneglycerol 4000 (PEG-4000), 2 mM pH 8.0 Na-DETA, 25 mM sodium ascorbate, 80 mM β-mecaptoenthanol, and 5 mM 1,4-dithiothreitol.
# The homogenate powder of lotus leaf and barley testa tissue was suspended in 5 ml extraction buffer 1, in which 1% proteinase inhibitor (Sigma) (V/V) was added. The homogenate powder of flowers and pods from Desmodium was suspended in extraction buffer 2, also in which 1% proteinase inhibitor (Sigma) (V/V) was added. The fine powder of Desmodium leaves or grape fruit skin was respectively suspended in 6 ml or 50 ml extraction buffer 3, in which 1% proteinase inhibitor (Sigma) (V/V) is added. The homogenates were vortexed vigorously and stayed on ice for 5-10 mm, squeezed through microcloth into 50 ml tubes and then 1/5 (W/V) equilibrated Dowex 1×2 was added into collected squeezed mixture solution. […]
# [7] = reactions containing leucoanthocyanidins, repeated attempts
compound,measurement,setting,value
"Oc1cc(O)c2cc(O)c(-c3cc(O)c(O)c(O)c3)[o+]c2c1 [delphinidin, delphinidin chloride]",reduction of anthocyanidin substrate to flavan-3-ol product(s) by MtBAN,[1],catalyzed the reduction of delphinidin into putative gallo-catechin and epi-gallocatechin
same,reduction of anthocyanidin substrate to flavan-3-ol product by AtBAN,[2],delphinidin into gallocatechin
NC(=O)C1=CN([C@@H]2O[C@H](COP(=O)(O)OP(=O)(O)OC[C@H]3O[C@@H](n4cnc5c(N)ncnc54)[C@H](O)[C@@H]3O)[C@@H](O)[C@H]2O)C=CC1 [NADH],conversion with NADH relative to the level achieved with NADPH at the same concentration,[1]; NADH 2 mM final concentration substituted for NADPH,approximately 50%
Oc1cc(O)c2c(c1)O[C@H](c1ccc(O)c(O)c1)[C@@H](O)C2 [(+)-catechin],conversion of flavan-3-ol into its isomer on incubation with MtBAN,[1],does not produce
same,conversion of flavan-3-ol into its isomer on incubation with AtBAN,[2],does not produce
"Oc1cc(O)c2c(c1)O[C@H](c1ccc(O)c(O)c1)[C@H](O)C2 [(−) epicatechin, (−)-epicatechin]",conversion of flavan-3-ol into its isomer on incubation with MtBAN,[1],does not produce
same,conversion of flavan-3-ol into its isomer on incubation with AtBAN,[2],does not produce
NC(=O)C1=CN([C@@H]2O[C@H](COP(=O)(O)OP(=O)(O)OC[C@H]3O[C@@H](n4cnc5c(N)ncnc54)[C@H](OP(=O)(O)O)[C@@H]3O)[C@@H](O)[C@H]2O)C=CC1 [NADPH],co-factor dependence of conversion of anthocyanidins to flavan-3-ols,[1]; NADPH omitted from the enzyme assay mixtures,NADPH-dependent
leucoanthocyanidins,LAR activity with recombinant MtBAN,[1]; [7],no LAR activity was observed
same,LAR activity with recombinant AtBAN,[2]; [7],no LAR activity was observed
"Oc1cc(O)c2cc(O)c(-c3ccc(O)c(O)c3)[o+]c2c1.[Cl-] [cyanidin, cyanidin chloride]",reduction of anthocyanidin substrate to flavan-3-ol product(s) by MtBAN,[1],"reducing cyanidin to the corresponding flavan-3-ols, catechin and epicatechin"
same,reduction of anthocyanidin substrate to flavan-3-ol product by AtBAN,[2],reduction of cyanidin to epicatechin
same,conversion of cyanidin by extract with NADPH,[3],producing epicatechin
same,conversion of cyanidin by extract with NADPH,[4],producing epicatechin
same,conversion of cyanidin by extract with NADPH,[5],producing epicatechin
same,conversion of cyanidin by extract with NADPH,[6]; ANR from flowers,producing epicatechin
same,conversion of cyanidin by extract with NADPH,[6]; ANR from leaves,producing epicatechin
same,conversion of cyanidin by extract with NADPH,[6]; ANR from young pods,producing epicatechin
"Oc1ccc(-c2[o+]c3cc(O)cc(O)c3cc2O)cc1 [pelargonidin, Pelargonidin chloride]",reduction of anthocyanidin substrate to flavan-3-ol product(s) by MtBAN,[1],tentatively identified as epi-afzelechin
same,reduction of anthocyanidin substrate to flavan-3-ol product by AtBAN,[2],pelargonidin into epi-alfzelechin
